Results: paper PMC12427341, “Phytochemical-Mediated Modulation of Doramectin Pharmacology in Sheep: Exploring the Cinnamaldehyde–Pink Grapefruit Combination” (Animals : an Open Access Journal from MDPI, 2025)
Where “and” joins values, the source holds several entries; their conditions need not be identical. Equal entries are not always repeated. Marks after values point to notes of the source that are not given here.

Columns and labels:
Syphacia muris = system: Syphacia muris; parameters: method as in doi:10.2478/acve-2018-0036; settings: rats infected with Syphacia muris; cited from earlier work
[1] = rats; cited from earlier work
Ascaris suum = system: Ascaris suum; parameters: method as in PMID 26420588; settings: pigs; cited from earlier work
Haemonchus spp. [2] = experiment: Efficacy by nematode genus (coprocultures), trial 1; type: in vivo, Haemonchus contortus; settings: day 14, oral, lambs n = 9
Procedure: (§1) The coadministration of DRM and CNM–PGF, both by an oral emulsion, was evaluated in lambs. The trial involved 35 Corriedale and Texel crossbred lambs (mean body weight, 26 kg) naturally infected with resistant gastrointestinal nematodes and was conducted in a sheep experimental unit (Estación Experimental INTA, Balcarce, Argentina). There, a parasite control program based on the intensive use of antiparasitic drugs has been implemented for many years, leading to anthelmintic resistance to MLs and benzimidazoles. Animals were selected based on worm egg per gram counts (EPG), with an average EPG count of 2102 ± 1662. Animals were kept in a paddock and fed hay ad libitum, together with commercial concentrate feed. All animals had free access to water. Lambs were assigned to four experimental groups sorted by EPG count. Group A received an emulsion containing DRM (single dose of 0.2 mg/kg) (n = 9). Group B received CNM–PGF orally as an emulsion (two doses of 100 mg/kg every 24 h) (n = 9). Lambs of Group C were treated with an emulsion containing both DRM and CNM–PGF on the first day, and the second day, they received an emulsion of CNM–PGF only (n = 9). Group D included untreated lambs (n = 8). […] To evaluate the effect of the treatment, individual fecal samples from all the lambs were collected on days −1, 7, and 14 of treatment, and the fecal egg count reduction (FECR) was calculated. […]

[3] = parameters: method as in PMID 11106995; settings: sheep; cited from earlier work
P-glycoprotein [4] = experiment: Ex vivo intestinal transport of rhodamine 123 across sheep ileum (diffusion chamber model); settings: 4 h; for Peff M–S of Rho123 in the presence of the modulator: 0.5 µM Rho123, 5 µM DRM, 1.5 mM CNM–PGF or 50 µM LPM
Procedure: (§6) A series of ex vivo experiments were performed to evaluate the interaction of DRM, CNM–PGF, or LPM with ABC transporters. […] For this assay, sheep ileum samples were obtained from a local slaughterhouse (Ayacucho, Argentina). […] The incubation process was started immediately after obtaining the tissue. During the preparation and assembly process, intestinal tissue was always maintained between 0–4 °C. The tissue was then mounted vertically in a diffusion chamber with an internal surface area of 0.8 cm^2. […] Both the mucosal (M) and serosal (S) sides were filled with 7 and 5 mL of prewarmed and oxygenated Krebs buffer, respectively. […] During preparation, chambers were preincubated to slough off any dead cells, and during this period, the tissue were exposed in the donor side to the presence or absence of 5 µM of DRM; 1.5 mM of CNM–PGF; or 50 µM of LPM, a well-established P-gp modulator, which was used as a positive control [25, 26]. After a 20 min equilibration period, Krebs buffer was completely replaced with fresh medium fortified with 0.5 µM of Rho123 as a substrate to the M or S side of the chambers for measuring the absorption and secretion processes, respectively. Thus, Rho123 was incubated alone (control assays) or in the presence of DRM, CNM–PGF, or LPM. Tissues were incubated for 4 h, and each hour, aliquots of 1 mL were collected from the receptor side and replaced with fresh Krebs buffer.
(§7) Samples from the receptor side (1 mL) were mixed with 2 mL of distillated water to reach a final volume of 3 mL.
(§8) Values of unidirectional transepithelial effective permeability (Peff) (cm.s^−1) were calculated for each chamber according to the following equation: Peff=dC/dT1/A.C0
(§9) The appearance rate on the receiving compartment is dC/dT, calculated from the slope of the concentration versus time curve over a time period of 4 h (Rho123); A is the exposed area (cm^2) of the tissue in the Ussing chamber (0.8 cm^2), and C0 is the initial drug concentration (ng/mL) in the donor compartment. The efflux ratio (ER) was calculated as follows: ER=mean Peff S−M/mean Peff M−S
(§10) The intestinal absorption is represented by permeability in the M–S direction. The S–M side can also be used to measure permeability, in this case characterizes intestinal secretion. A higher Peff S–M compared to the Peff M–S is indicative of carrier-mediated transport.

[5] = Plasma pharmacokinetics of DRM after oral administration alone or with CNM–PGF or LPM; settings: DRM 0.2 mg/kg oral emulsion; sheep n = 7; mean ± SD
Procedure: (§2) An in vivo assay was performed to evaluate the pharmacokinetics and the efficacy of DRM orally administered alone or in combination with CNM–PGF and LPM against resistant gastrointestinal nematodes in lambs. For the trial, 27 naturally infected Corriedale and Texel crossbreed lambs (average weight, 33 kg) were used. On day −1, all lambs were checked for EPG and tagged, and the individual body weights were recorded. As in the previous assay (Trial 2.1), the selection of the animals was based on EPG. […] Lambs were housed in a paddock with access to hay, commercial concentrates, and water ad libitum. Lambs were assigned into three experimental groups. Group A received DRM (0.2 mg/kg) as an oral emulsion (n = 7). Lambs in groups B and C received an emulsion containing DRM (a single dose of 0.2 mg/kg) and either LPM (n = 7) (three oral doses of 0.3 mg/kg, every 24 h) or CNM–PGF (n = 7) (three oral doses containing 72 and 64 mg/kg of CNM and PGF, respectively, every 24 h). Group D served as the untreated control (n = 6). As appropriate, the final concentrations of the active ingredients within the formulations were DRM 5%, CNM 18%, PGF 16%, LPM 30%. The compounds were diluted in Tween-80 11%, sesame oil 1–30%, and distilled water. The formulations were prepared using a similar method to that used in the previously described trial (Trial 2.1).
(§3) For the plasma disposition of DRM, jugular blood samples (2 mL) were collected into heparinized vacutainer tubes before treatment and at 3, 6, 9, 24, 30, 48, and 54 h and 3, 4, 7, 10, and 14 days post treatment. Blood samples were centrifuged at 2000× g for 15 min; the recovered plasma was kept in labeled vials and stored at −20 °C until the analysis of DRM by high performance liquid chromatography (HPLC). The effect of each treatment was indirectly estimated by collecting fecal samples on days −1 and 14 of administration to evaluate the FECR.
(§4) Data are expressed as mean ± standard deviation (SD). Rho123 transport across the ileum is presented as ng of Rho123 in the receptor side of the chamber. The plasma concentration versus time curves obtained after treatment of each animal were fitted with the PK Solutions 2.0 software (summit Research Services, Ashland, OH, USA) software. Pharmacokinetic parameters were determined using a noncompartmental model method. The evaluation of the FECR was calculated according to the following formula [33], with modifications: FECR %=100 × (1−T2/T1) where T1 and T2 are the arithmetic mean EPG counts in the treated group on days 0 and 14, respectively. The 90% confidence intervals were calculated following the method of reference.

[6] = system: resistant gastrointestinal nematodes; experiment: Fecal egg count reduction test (FECRT), trial 2: DRM alone or with CNM–PGF or LPM; type: in vivo, lambs
Procedure: as §2, §3, §4
The statistical analysis was performed using Prism 8.0 (GraphPad Software, San Diego, CA, USA). ANOVA or Kruskal–Wallis tests were used for the statistical comparison. […]

[7] = system: resistant gastrointestinal nematodes; experiment: Fecal egg count reduction test (FECRT), trial 1: DRM, CNM–PGF and their combination as oral emulsions; type: in vivo, lambs
Procedure: The coadministration of DRM and CNM–PGF, both by an oral emulsion, was evaluated in lambs. The trial involved 35 Corriedale and Texel crossbred lambs (mean body weight, 26 kg) naturally infected with resistant gastrointestinal nematodes and was conducted in a sheep experimental unit (Estación Experimental INTA, Balcarce, Argentina). […] Animals were kept in a paddock and fed hay ad libitum, together with commercial concentrate feed. All animals had free access to water. Lambs were assigned to four experimental groups sorted by EPG count. Group A received an emulsion containing DRM (single dose of 0.2 mg/kg) (n = 9). Group B received CNM–PGF orally as an emulsion (two doses of 100 mg/kg every 24 h) (n = 9). Lambs of Group C were treated with an emulsion containing both DRM and CNM–PGF on the first day, and the second day, they received an emulsion of CNM–PGF only (n = 9). Group D included untreated lambs (n = 8). […] CNM–PGF was formulated as an emulsion composed of Tween-80/sesame oil (3:1) 20% at a final concentration of 15% CNM and 15% PGF. Briefly, the CNM–PGF emulsion was prepared using the high-energy ultrasonic method. CNM and PGF were mixed with sesame oil to form the oil phase. The oil phase was added dropwise to the aqueous phase containing Tween-80 and distillated water while stirring, and the emulsion formed was then subjected to ultrasonic emulsification for 15 min. The same steps were performed for the DRM + CNM–PGF emulsion, the synthetic compound was added to the oil phase, and their final concentration was 0.03%. […] To evaluate the effect of the treatment, individual fecal samples from all the lambs were collected on days −1, 7, and 14 of treatment, and the fecal egg count reduction (FECR) was calculated. The coprocultures were prepared with 10 g of feces from a pool of each experimental group obtained on days −1 and 14. The nematode genera and species were identified through the third-stage larvae recovered from the coprocultures.
as §4
The statistical analysis was performed using Prism 8.0 (GraphPad Software, San Diego, CA, USA). ANOVA or Kruskal–Wallis tests were used for the statistical comparison. Tukey or Dunn tests were used for post hoc multiple comparisons. The egg counts obtained for each treatment on Day 14 were compared with the corresponding baseline counts on Day 0 using the Wilcoxon matched-pairs signed rank test. Differences were considered statistically significant at p < 0.05.

Haemonchus spp. [8] = experiment: Efficacy by nematode genus, trial 2; type: in vivo, Haemonchus contortus; settings: day 14, oral, lambs n = 7
Text: (§5) Lambs were assigned into three experimental groups. […] Group D served as the untreated control (n = 6).

Teladorsagia spp. [9] = experiment: Efficacy by nematode genus (coprocultures), trial 1; type: in vivo; settings: day 14, oral, lambs n = 9
Procedure: as §1, with “8). The selected phytochemical dose was based on previous in vivo studies with other monoterpenes, such as thymol and carvone, which were administered to lambs at doses ranging from 100 to 150 mg/kg, without adverse effects. CNM–PGF was formulated as an emulsion composed of Tween-80/sesame oil (3:1) 20% at a final concentration of 15% CNM and 15% PGF. Briefly, the CNM–PGF emulsion was prepared using the high-energy ultrasonic method. CNM and PGF were mixed with sesame oil to form the oil phase. The oil phase was added dropwise to the aqueous phase containing Tween-80 and distillated water while stirring, and the emulsion formed was then subjected to ultrasonic emulsification for 15 min.” for “8).”

Trichostrongylus spp. [10] = experiment: as above; type: in vivo; settings: day 14, oral, lambs n = 9
Procedure: as §1, with “8). The selected phytochemical dose was based on previous in vivo studies with other monoterpenes, such as thymol and carvone, which were administered to lambs at doses ranging from 100 to 150 mg/kg, without adverse effects. CNM–PGF was formulated as an emulsion composed of Tween-80/sesame oil (3:1) 20% at a final concentration of 15% CNM and 15% PGF. Briefly, the CNM–PGF emulsion was prepared using the high-energy ultrasonic method. CNM and PGF were mixed with sesame oil to form the oil phase. The oil phase was added dropwise to the aqueous phase containing Tween-80 and distillated water while stirring, and the emulsion formed was then subjected to ultrasonic emulsification for 15 min.” for “8).”

Cooperia spp. = experiment: as above; type: in vivo; settings: day 14, oral, lambs n = 9
Procedure: as §1, with “8). The selected phytochemical dose was based on previous in vivo studies with other monoterpenes, such as thymol and carvone, which were administered to lambs at doses ranging from 100 to 150 mg/kg, without adverse effects. CNM–PGF was formulated as an emulsion composed of Tween-80/sesame oil (3:1) 20% at a final concentration of 15% CNM and 15% PGF. Briefly, the CNM–PGF emulsion was prepared using the high-energy ultrasonic method. CNM and PGF were mixed with sesame oil to form the oil phase. The oil phase was added dropwise to the aqueous phase containing Tween-80 and distillated water while stirring, and the emulsion formed was then subjected to ultrasonic emulsification for 15 min.” for “8).”

Teladorsagia spp. [11] = experiment: Efficacy by nematode genus, trial 2; type: in vivo; settings: day 14, oral, lambs n = 7
Text: as §5

Trichostrongylus spp. [12] = experiment: Efficacy by nematode genus, trial 2; type: in vivo; settings: day 14, oral, lambs n = 7
Text: as §5

P-glycoprotein [13] = system: P-glycoprotein
Procedure: as §6, §7, §8, §9, §10

[14] = system: gastrointestinal nematodes; settings: cited from earlier work; for Efficacy of single phytochemicals: sheep, low to moderate efficacy
C. elegans = system: C. elegans; parameters: method as in doi:10.1155/2020/1740938; settings: in vitro exposure; cited from earlier work
P-glycoprotein [15] = experiment: in vitro; settings: Corriedale and Texel crossbreed, sheep
Procedure: as §6, §7, §8, §9, §10

[16] = day 14, lower-upper confidence limit

O=C/C=C/c1ccccc1 [CNM, cinnamaldehyde]
In vivo efficacy (Syphacia muris): no in vivo efficacy was observed | Oral LD50 [1]: approximately 2220 mg/kg | In vivo anthelmintic effect (Ascaris suum): failed to exert any in vivo anthelmintic effect

CO[C@H]1C[C@H](O[C@H]2[C@H](C)O[C@@H](O[C@@H]3/C(C)=C/C[C@@H]4C[C@@H](C[C@]5(C=C[C@H](C)[C@@H](C6CCCCC6)O5)O4)OC(=O)[C@@H]4C=C(C)[C@@H](O)[C@H]5OC/C(=C\C=C\[C@@H]3C)[C@]54O)C[C@@H]2OC)O[C@@H](C)[C@@H]1O [DRM, doramectin]
Efficacy (%) against Haemonchus spp. (Haemonchus spp. [2]): 0% | Absolute oral bioavailability [3]: 25% | Peff M–S of Rho123 in the presence of the modulator (P-glycoprotein [4]): 38.3 ± 18.7 nm/s | AUC0–t of DRM in plasma [5]: 90.84 ± 33.61 ^a ng d/mL | Cmax of DRM in plasma [5]: 25.76 ± 10.01 ^a ng/mL | T max of DRM in plasma [5]: 0.93 ± 0.47 ^a days | T ½ el (elimination half-life) of DRM [5]: 2.19 ± 0.41 ^a days | Mean egg per gram (EPG) counts (±SD), Day 14 ([6]; 14 days after oral DRM 0.2 mg/kg, LPM three doses of 0.3 mg/kg, CNM–PGF three doses of 72 and 64 mg/kg, every 24 h, lambs n = 7): 694 ± 944 EPG and 694 ± 944 ^aB EPG | Mean egg per gram (EPG) counts (±SD), Day 0 ([6]; baseline before treatment, lambs n = 7, mean ± SD): 1586 ± 984 ^aA EPG | FECR (LCL-UCL), 90% confidence interval [6, 16]: (9–88) % | FECR (%) ([6]; day 14, oral emulsion, lambs n = 7): 56% | Mean egg per gram (EPG) counts (±SD), Day 14 ([7]; 14 days after oral administration, DRM 0.2 mg/kg single dose, CNM–PGF two doses of 100 mg/kg every 24 h, lambs n = 9): 910 ± 2548 EPG and 910 ± 2548 ^abB EPG | Mean egg per gram (EPG) counts (±SD), Day 0 ([7]; baseline before treatment, lambs n = 9, mean ± SD): 2716 ± 2641 ^aA EPG | Prevalence of egg count negativization (percentage of animals with an egg count of zero) ([7]; day 14): 40% | FECR (LCL-UCL), 90% confidence interval [7, 16]: (0–98) % | FECR (%) ([7]; day 14, oral emulsion, lambs n = 9): 66% | Efficacy (%) against Haemonchus spp. (Haemonchus spp. [8]): 0% | Efficacy (%) against Teladorsagia spp. (Teladorsagia spp. [9]): 100% | Efficacy (%) against Trichostrongylus spp. (Trichostrongylus spp. [10]): 100% | Efficacy (%) against Cooperia spp. (Cooperia spp.): 100% | Efficacy (%) against Teladorsagia spp. (Teladorsagia spp. [11]): 82% | Efficacy (%) against Trichostrongylus spp. (Trichostrongylus spp. [12]): 100% | Efflux ratio (ER) of Rho123 in the presence of the modulator (P-glycoprotein [13]): 4.66

CN(C)C(=O)C(CCN1CCC(O)(c2ccc(Cl)cc2)CC1)(c1ccccc1)c1ccccc1 [LPM, loperamide]
Peff M–S of Rho123 in the presence of the modulator (P-glycoprotein [4]): 38.4 ± 10.2 nm/s

C=C(C)[C@H]1CC=C(C)CC1 [Limonene, limonene]
FECR ([14]; long-term administration through feed, coadministered with a single dose of ivermectin, adult nematode number unaffected): 82% | Survival rate of C. elegans (C. elegans): 30%

COC(=O)c1ccccc1-c1c2ccc(=N)cc-2oc2cc(N)ccc12 [Rho123, rhodamine 123]
Rho123 absorption, Peff M–S (P-glycoprotein [4]; 0.5 µM Rho123 alone (control)): 13.9 ± 3.43 nm/s | Rho123 secretion, Peff S–M (P-glycoprotein [4]; 0.5 µM Rho123 alone (control)): 111 ± 36.4 nm/s | efflux ratio at 4 h, 0.5 µM (P-glycoprotein [15]): 10.3

C=C(C)C1CC=C(C)C(=O)C1 (stereo not shown) [carvone]
Efficacy of single phytochemicals [14]: 0–47%

Cc1ccc(C(C)C)c(O)c1 [thymol]
Efficacy of single phytochemicals [14]: 0–47%
